According to US20140056951A1, “METHODS AND COMPOSITIONS FOR TREATING BIOFILMS” (PRESIDENT AND FELLOWS OF HARVARD COLLEGE, priority 2011, published 2014):
Where two headings read alike, the source gives them in different places.

Key:
[1] = test system: B. subtilis strain NCBI3610; test: Biofilm (pellicle) inhibition assay, B. subtilis in liquid biofilm-inducing medium; format: cell-based, Bacillus subtilis; settings: for minimal effective concentration: Bacillus subtilis; for inhibition of pellicle formation at 50 μM: cells diluted 1:1000 in biofilm media, final concentration 50 μM
Protocol: Bacillus subtilis strains PY79, 3610 and their derivatives were grown in Luria-Bertani (LB) medium at 37° C. or MSgg medium (1) at 23° C. Solid media contained 1.5% Bacto agar. When appropriate, antibiotics were added at the following concentrations for growth of B. subtilis: 10 μg per ml of tetracycline, and 5 μg per ml of erythromycin, 500 μg per ml of spectinomycin.
B. subtilis strain NCBI3610 was grown at 22° C. in 12-well plates in liquid biofilm-inducing medium for 3 or 8 days. Conditioned medium (500 ml) from an 8-day-old culture was concentrated on the C-18 column and eluted step-wise with methanol. […]
Pellicle formation of strain NCBI 3610 was tested in the presence of the indicated concentrations of norspermidine (FIG. 1D) or spermidine (FIG. 1E).
To identify features of norspermidine important for its biofilm disassembly activity, we tested a library of polyamines in our biofilm inhibition assay (FIGS. 9A, 9B, 10 and Table 2).
The effect of polyamines on pellicle formation by B. subtilis was examined. B. subtilis wild-type cells were grown to a mid-logarithmic phase and diluted 1:1000 in biofilm media applied with each polyamine to the final concentration of 50 μM.
The effect of cyclic polyamines on biofilm formation by B. subtilis was examined. B. subtilis wild-type cells were grown to a mid-logarithmic phase and diluted 1:1000 in biofilm media (18A) or in a medium applied with cyclic compound 1,5,9-Triazacyclododecane to the final concentration of 50 μM (18B).

[2] = test system: Proteus mirabilis strain BB2000; test: Proteus mirabilis biofilm formation in polystyrene wells, crystal violet staining; format: cell-based; settings: 1 mM, M9 + glucose, 48 hours at 30° C., OD 595 nm
Protocol: To examine the effects of polyamines on biofilm formation, wells were initially treated with water (no treatment), 1 mM norspermidine, and 1 mM norspermine in 3 ml M9 + glucose before inoculation with P. mirabilis. Biofilms were permitted to grow for 48 hours at 30° C. without shaking The amount of biofilm formed was assessed with the standard assay of crystal violet staining (O'Toole G et al., Biofilm formation as microbial development, Annu Rev. Microbiol. (2000) 54:49-79); supernatant was removed from the wells and crystal violet (at […]) was then incubated in each well for 15 minutes at room temperature, followed by removal of the crystal violet from the wells and a subsequent washes with water. Any crystal violet attached the wells was next solubilized with 95% ethanol for 15 minutes at room temperature, and the subsequent optical density at 595 nm in each well was measured with a multiplate reader.

S. aureus strain SCO1 = test: Submerged biofilm formation by S. aureus, crystal violet staining; format: cell-based, Staphylococcus aureus; settings: for inhibition of S. aureus biofilm formation: TSB with NaCl (3%) and Glucose (0.5%), norspermidine 10 μM, norspermine 100 μM; for inhibition of S. aureus submerged biofilm formation, compound screen: compounds tested at 500 μM
Protocol: (§1) The compounds were tested at 500 μM. Biofilm formation was visualized by crystal violet staining of submerged biofilms.
(§2) Whether polyamines might prevent biofilm formation by other bacteria that produce an exopolysaccharide matrix was examined. […] The compounds were tested at 500 μM. Biofilm formation was visualized by crystal violet staining of submerged biofilms.
The medium was applied with norspermidine (10 μM), norspermine (100 μM) or spermine (500 μM). Planktonic cells were removerd (19A-D). Wells were washed once, and incubated with Crystal Violet (0.1%) for 15 mins. Wells were washed twice in DDW (19E-H).
The effect of certain polyamines combined with biofilm-inhibiting D-amino acids in Staphylococcus was examined. S. aureus strain SC-01 was grown to a mid-logarithmic phase and diluted 1:1000 into a 12 wells plate in a TSB medium applied with NaCl (3%) and Glucose (0.5%). The medium was applied with either norspermidine or D-tyrosine or both as indicated below each panel. Planktonic cells were removerd Wells were washed once, and incubated with Crystal Violet (0.1%) for 15 mins. Wells were washed twice in DDW.

B. subtilis pellicles = test: Disassembly of pre-formed pellicles, B. subtilis; format: cell-based, Bacillus subtilis; settings: 250 μM applied at day 2, additional 24 hrs
Protocol: After incubation for the indicated times, pellicle material and the medium were separated and each brought to a volume of 3 ml. After mild sonication, the OD600 was determined for each sample. The % of disassembly represents the OD600 of the medium as a percent of the sum of the OD600 of the medium and the OD600 of the pellicle. […] Thus, D-amino acids and norspermidine act synergistically in preventing biofilm formation and triggering the disassembly of mature biofilms.
Whether polyamines could trigger disassembly of biofilms formed by B. subtilis was examined. B. subtilis wild-type cells grown in liquid biofilm medium. Cells were grown to mid-logarithmic phase and diluted 1:1000 in liquid biofilm media. At day 2, pre-formed pellicles were applied with either PBS (A) or norspermine (250 μM) (B). Pellicles were incubated for additional 24 hrs.

E. coli strain MC4100 = test: Submerged biofilm formation by E. coli, crystal violet staining; format: cell-based, Escherichia coli; settings: compounds tested at 500 μM
Protocol: as §1, §2
(§3) In testing E. coli, the biofilm-proficient strain MC4100 was selected because a major component of exopolysacchride is colanic acid (Danese et al., 2000; Price and Raivio, 2009).

[3] = test system: P. aeriginosa strain PA14; test: Biofilm formation by Pseudomonas on solid M63 medium; format: cell-based, Pseudomonas aeruginosa; settings: 1 μl of cells mixed with 1 μl (10 mM) polyamine
Protocol: The effect of polyamines on biofilm formation by Pseudomonas was examined. P. aeriginosa strain PA14 were grown to a mid-logarithmic phase and 1 μl of cells was mixed with 1 μl (10 mM) of each polyamine. The mixture was plated on solid M63 medium.

[4] = test system: B. subtilis wild-type cells; test: Biofilm formation on solid biofilm medium, B. subtilis; format: cell-based, Bacillus subtilis; settings: 1 μl of cells mixed with 1 μl (1 mM) polyamine
Protocol: B. subtilis wild-type cells were grown to a mid-logarithmic phase and 1 μl of cells was mixed with 1 μl (1 mM) of each polyamine. The mixture was plated on solid biofilm medium.
B. subtilis wild-type cells were grown to a mid-logarithmic phase and 1 μl of cells was either mixed with PBS (18C) or mixed with 1 μl (1 mM) of each polyamine (18D). The mixture was plated on solid biofilm medium. “3*” refers to 1,5,9-Triazacyclododecane.

[5] = test system: exopolysaccharide of S. aureus cells; test: Fluorescence microscopy of exopolysaccharide staining, S. aureus; format: cell-based, Staphylococcus aureus
[6] = test system: B. subtilis exopolysaccharide mutant (ΔepsH; DS76) and TasA mutant (ΔtasA; FC55); test: Pellicle formation by matrix mutants in presence of norspermidine; format: cell-based, Bacillus subtilis; settings: 25 μM norspermidine, 3-day-old cultures
Description: It was observed that the residual pellicle (wispy fragments of floating material with some structure) produced in the presence of norspermidine resembled pellicles seen for a mutant blocked in exopolysaccharide production but not those seen (thin, featureless pellicles) for a mutant blocked in amyloid-fiber production. […] In other words, the effect of norspermidine was synergistic with that of a mutation blocking fiber formation but not with a mutant blocked in exopolysaccharide production (FIG. 4B).

[7] = test system: exopolysaccharide and TasA of B. subtilis NCBI 3610; test: Fluorescence microscopy of matrix components (concanavalin A-Texas Red, TasA-mCherry), B. subtilis; format: cell-based, Bacillus subtilis
Description: The cells were washed in PBS and stained for exopolysaccharide with a conjugate of concanavalin A with Texas-Red.
[…] Cells were washed in PBS, and visualized by fluorescence microscopy.
To investigate further, exopolysaccharide was visualized by fluorescence microscopy using a conjugate of the carbohydrate-binding protein concanavalin A with Texas Red (FIG. 5) (McSwain et al., 2005). As evidence of specificity, the conjugate decorated wild-type cells but not cells from a mutant (Aeps) blocked in exopolysaccharide production (FIG. 6A). Indeed, at an exposure at which concanavalin A staining with the wild type strain gave an extremely bright fluorescent signal, little or no signal could be detected for the Aeps mutant, except at long exposures and enhanced brightness (FIG. 6A). Next, we investigated the effects of norspermidine and spermidine. […] Therefore, the difference in the staining was evidently due to differential levels of cell-associated exopolysaccharide. […] Thus, while not being bound to any theory, it is believed that norspermidine disrupts the matrix and by targeting exopolysaccharide.

[8] = test system: exopolysaccharide of E. coli cells; test: Fluorescence microscopy of exopolysaccharide staining, E. coli; format: cell-based, Escherichia coli
Description: as §3

[9] = test system: B. subtilis NCBI 3610 / strain FC5 (PepsA-lacZ); test: Growth and matrix operon expression in shaking MSgg medium; format: cell-based, Bacillus subtilis; settings: 100 μM, MSgg medium with shaking
Protocol: Strain FC5 (carrying PepsA-lacZ) was grown in MSgg medium containing norspermidine (100 μM) with shaking or in untreated medium as control (NT).
NCBI 3610 was grown in MSgg medium applied with norspermidine (100 μM) with shaking or in untreated medium served as a control (NT). […] Therefore, whether norspermidine interacts directly with the exopolysaccharide was investigated. To attempt to detect such an interaction, dynamic light scattering was used. Dynamic scattering is a standard procedure for measuring the average radius of polymers in which a laser beam is transmitted through a sample containing polymers in solution (Berne, 1976; Orgad et al., 2011; Vinayahan et al., 2010).

NCCCNCCCNCCCN [Molecule 2, N′-[3-(3-aminopropylamino)propyl]propane-1,3-diamine]
minimal effective concentration ([1]; NCBI3610, B. subtilis biofilm inhibition assay, library of polyamines, read-out: MBIC- Minimal Biofilm Inhibitory Concentration): 200 µM | inhibition of pellicle formation at 50 μM [1]: inhibit biofilm formation | biofilm-inhibitory activity against B. subtilis ([1]; library of polyamines, structure-activity): exhibited biofilm-inhibitory activity | reduction of Proteus mirabilis biofilm formation [2]: sufficient to reduce biofilm formation | inhibition of S. aureus biofilm formation (S. aureus strain SCO1): inhibit biofilm formation | inhibition of S. aureus submerged biofilm formation, compound screen (S. aureus strain SCO1): inhibited the formation of submerged biofilms | disassembly of pre-formed pellicles (B. subtilis pellicles): triggered disassembly of the pellicles | inhibition of E. coli submerged biofilm formation (E. coli strain MC4100): inhibited the formation of submerged biofilms | inhibition of Pseudomonas biofilm formation [3]: inhibit biofilm formation | inhibition of biofilm formation on solid biofilm medium [4]: inhibit biofilm formation

NCCCNCCCN [Molecule 1, N-(3-aminopropyl)propane-1,3-diamine]
staining of exopolysaccharide, S. aureus cells [5]: markedly diminished staining of exopolysaccharide | minimal effective concentration ([1]; NCBI3610, read-out: MBIC- Minimal Biofilm Inhibitory Concentration): 25 to 50 µM | concentration at which biofilm formation was inhibited ([1]; authentic norspermidine, pellicle formation NCBI3610): 25 µM | inhibition of pellicle formation at 50 μM [1]: inhibit biofilm formation | reduction of Proteus mirabilis biofilm formation [2]: sufficient to reduce biofilm formation | inhibition of S. aureus biofilm formation (S. aureus strain SCO1): inhibit biofilm formation | inhibition of S. aureus submerged biofilm formation, compound screen (S. aureus strain SCO1): inhibited the formation of submerged biofilms | effect on pellicle formation by amyloid fiber (TasA) mutant [6]: abolished pellicle formation | effect on residual pellicle of exopolysaccharide mutant [6]: little effect on the residual pellicle | inhibition of E. coli submerged biofilm formation (E. coli strain MC4100): inhibited the formation of submerged biofilms | inhibition of Pseudomonas biofilm formation [3]: inhibit biofilm formation | pattern of concanavalin A-Texas Red staining of exopolysaccharide ([7]; norspermidine 25 μM, spermidine 1 mM): disrupted the relatively uniform, cell-associated pattern of staining | effect on protein component of the matrix (TasA-mCherry) ([7]; norspermidine 50 μM): little or no effect on the protein component of the matrix | staining of exopolysaccharide, E. coli cells [8]: markedly diminished staining of exopolysaccharide | inhibition of biofilm formation on solid biofilm medium [4]: inhibit biofilm formation | cell growth [9]: not significantly inhibited
